Assay results published in article PMC10169810, “Ligand-induced activation and G protein coupling of prostaglandin F2α receptor” (Nature Communications, 2023).
Several values for one entry are separate records, joined by “and”; a condition that tells them apart may be missing. Equal values may be shown once.

What was measured:
FP S33A = biological target: T1, FP S33A (Homo sapiens, UniProt P43088, S33A); experiment: IP-One accumulation assay, FP S33A mutant; assay type: cell-based; conditions: S33 to alanine vs WT FP
T1 construct: Flag; expressed in transfected cells; host or cells: AD293 cells
T1 sequence (P43088 whole entry S33A): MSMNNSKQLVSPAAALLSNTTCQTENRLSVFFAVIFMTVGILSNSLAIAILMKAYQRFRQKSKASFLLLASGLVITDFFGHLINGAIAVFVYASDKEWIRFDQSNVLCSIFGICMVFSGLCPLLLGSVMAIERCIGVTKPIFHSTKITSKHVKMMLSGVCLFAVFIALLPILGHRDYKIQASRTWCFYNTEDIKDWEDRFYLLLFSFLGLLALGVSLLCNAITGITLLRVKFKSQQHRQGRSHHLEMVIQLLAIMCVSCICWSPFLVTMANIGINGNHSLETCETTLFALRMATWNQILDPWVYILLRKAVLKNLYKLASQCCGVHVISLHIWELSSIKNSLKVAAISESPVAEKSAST
Protocol: (§1) IP-One production was measured using the IP-One HTRF kit (Cisbio)[50]. Briefly, AD293 cells (Agilent) were grown to a density of 400,000–500,000 cells per mL and then […] with separate plasmids at a suitable concentration. The culture was collected by centrifugation 24 h after incubation at 37 °C in 5% CO2 with a Stimulation Buffer. The cell suspension was then dispensed in a white 384-well plate at a volume of 7 μl per well before adding 7 μl of ligands. The mixture was incubated for 1 h at 37 °C. IP-One-d2 and anti-IP-One Cryptate dissolved in Lysis Buffer (3 μl each) were subsequently added and incubated for 15-30 min at room temperature before measurement. Intracellular IP-One measurement was carried out with the IP-One HTRF kit and EnVision multi-plate reader (PerkinElmer) according to the manufacturer’s instructions. Data were normalized to the baseline response of the ligand. pEC50 Emin, and Emax for each curve were calculated by GraphPad Prism 8.0. ∆pEC50 equals pEC50 of agonists to specific Mutant minus pEC50 of agonists to WT. Data are presented as mean values ± SEM; n = 3 independent samples; n.s. no significant; *p < 0.05; **p < 0.01; ***p < 0.001.

FP F205A = biological target: T2, FP F205A (Homo sapiens, UniProt P43088, F205A); experiment: IP-One accumulation assay, FP F205A mutant; assay type: cell-based; conditions: F205A mutant vs WT FP; IP1 accumulation, AD293 cells; single values of n = 3 independent samples
T2 construct: Flag; expressed in transfected cells; host or cells: AD293 cells
T2 sequence (P43088 whole entry F205A): as the sequence (P43088 whole entry S33A) above, with A33S, F205A counted along it
Protocol: as §1

FP I290A = biological target: T3, FP I290A (Homo sapiens, UniProt P43088, L290A); experiment: IP-One accumulation assay, FP I290A mutant; assay type: cell-based; conditions: I290A mutant vs WT FP; IP1 accumulation, AD293 cells; single values of n = 3 independent samples
T3 construct: Flag; expressed in transfected cells; host or cells: AD293 cells
T3 sequence (P43088 whole entry L290A): as the sequence (P43088 whole entry S33A) above, with A33S, L290A counted along it
Protocol: as §1

FP W185A = biological target: T4, FP W185A (Homo sapiens, UniProt P43088, W185A); experiment: IP-One accumulation assay, FP W185A mutant; assay type: cell-based; conditions: W185A mutant vs WT FP; IP1 accumulation, AD293 cells; single values of n = 3 independent samples
T4 construct: Flag; expressed in transfected cells; host or cells: AD293 cells
T4 sequence (P43088 whole entry W185A): as the sequence (P43088 whole entry S33A) above, with A33S, W185A counted along it
Protocol: as §1

FP I298A = biological target: T5, FP I298A (Homo sapiens, UniProt P43088, I298A); experiment: IP-One accumulation assay, FP I298A mutant; assay type: cell-based; conditions: I298A mutant vs WT FP; IP1 accumulation, AD293 cells; single values of n = 3 independent samples
T5 construct: Flag; expressed in transfected cells; host or cells: AD293 cells
T5 sequence (P43088 whole entry I298A): as the sequence (P43088 whole entry S33A) above, with A33S, I298A counted along it
Protocol: as §1

FP = test system: FP; design: method as in PMID 10785618; conditions: cited from earlier work
FP M115A = biological target: T6, FP M115A (Homo sapiens, UniProt P43088, M115A); experiment: IP-One accumulation assay, FP M115A mutant; assay type: cell-based; conditions: M115 to alanine vs WT FP
T6 construct: Flag; expressed in transfected cells; host or cells: AD293 cells
T6 sequence (P43088 whole entry M115A): as the sequence (P43088 whole entry S33A) above, with A33S, M115A counted along it
Protocol: as §1

FP S118N = biological target: T7, FP S118N (Homo sapiens, UniProt P43088, S118N); experiment: IP-One accumulation assay, FP S118N mutant; assay type: cell-based
T7 construct: Flag; expressed in transfected cells; host or cells: AD293 cells
T7 sequence (P43088 whole entry S118N): as the sequence (P43088 whole entry S33A) above, with A33S, S118N counted along it
Protocol: as §1

FP T184A = biological target: T8, FP T184A (Homo sapiens, UniProt P43088, T184A); experiment: IP-One accumulation assay, FP T184A mutant; assay type: cell-based; conditions: T184 mutant (alanine) vs WT FP
T8 construct: Flag; expressed in transfected cells; host or cells: AD293 cells
T8 sequence (P43088 whole entry T184A): as the sequence (P43088 whole entry S33A) above, with A33S, T184A counted along it
Protocol: as §1

FP S118A = biological target: T9, FP S118A (Homo sapiens, UniProt P43088, S118A); experiment: IP-One accumulation assay, FP S118A mutant; assay type: cell-based
T9 construct: Flag; expressed in transfected cells; host or cells: AD293 cells
T9 sequence (P43088 whole entry S118A): as the sequence (P43088 whole entry S33A) above, with A33S, S118A counted along it
Protocol: as §1

FP R291A = biological target: T10, FP R291A (Homo sapiens, UniProt P43088, R291A); experiment: IP-One accumulation assay, FP R291A mutant; assay type: cell-based; conditions: R291 mutant (alanine) vs WT FP
T10 construct: Flag; expressed in transfected cells; host or cells: AD293 cells
T10 sequence (P43088 whole entry R291A): as the sequence (P43088 whole entry S33A) above, with A33S, R291A counted along it
Protocol: as §1

FP Q297A = biological target: T11, FP Q297A (Homo sapiens, UniProt P43088, Q297A); experiment: IP-One accumulation assay, FP Q297A mutant; assay type: cell-based; conditions: Q297A mutant vs WT FP; IP1 accumulation, AD293 cells; single values of n = 3 independent samples
T11 construct: Flag; expressed in transfected cells; host or cells: AD293 cells
T11 sequence (P43088 whole entry Q297A): as the sequence (P43088 whole entry S33A) above, with A33S, Q297A counted along it
Protocol: as §1

FP F265A = biological target: T12, FP F265A (Homo sapiens, UniProt P43088, F265A); experiment: IP-One accumulation assay, FP F265A mutant; assay type: cell-based; conditions: F265A mutant vs WT FP; IP1 accumulation, AD293 cells; single values of n = 3 independent samples
T12 construct: Flag; expressed in transfected cells; host or cells: AD293 cells
T12 sequence (P43088 whole entry F265A): as the sequence (P43088 whole entry S33A) above, with A33S, F265A counted along it
Protocol: as §1

FP T294A = biological target: T13, FP T294A (Homo sapiens, UniProt P43088, T294A); experiment: IP-One accumulation assay, FP T294A mutant; assay type: cell-based
T13 construct: Flag; expressed in transfected cells; host or cells: AD293 cells
T13 sequence (P43088 whole entry T294A): as the sequence (P43088 whole entry S33A) above, with A33S, T294A counted along it
Protocol: as §1

EP1 = test system: EP1; design: method as in PMID 10785618; conditions: cited from earlier work
FP Y92A = biological target: T14, FP Y92A (Homo sapiens, UniProt P43088, Y92A); experiment: IP-One accumulation assay, FP Y92A mutant; assay type: cell-based; conditions: Y92 mutant (alanine) vs WT FP
T14 construct: Flag; expressed in transfected cells; host or cells: AD293 cells
T14 sequence (P43088 whole entry Y92A): as the sequence (P43088 whole entry S33A) above, with A33S, Y92A counted along it
Protocol: as §1

FP S118F = biological target: T15, FP S118F (Homo sapiens, UniProt P43088, S118F); experiment: IP-One accumulation assay, FP S118F mutant; assay type: cell-based; conditions: S118F mutant vs WT FP; IP1 accumulation, AD293 cells; single values of n = 3 independent samples
T15 construct: Flag; expressed in transfected cells; host or cells: AD293 cells
T15 sequence (P43088 whole entry S118F): as the sequence (P43088 whole entry S33A) above, with A33S, S118F counted along it
Protocol: as §1

EP3 = test system: EP3; design: method as in PMID 10785618; conditions: cited from earlier work

- effect of mutation on agonist affinity / potency (in words) (FP S33A): significantly decreased the potency
- ∆pEC50 (pEC50 of agonist to mutant minus pEC50 to WT) (FP F205A): -2.3 and -2.1 and -2.2
- ∆pEC50 (pEC50 of agonist to mutant minus pEC50 to WT) (FP I290A): -1.1 and -1.3 and -1.0
- ∆pEC50 (pEC50 of agonist to mutant minus pEC50 to WT) (FP W185A): -2.9 and -2.7
- ∆pEC50 (pEC50 of agonist to mutant minus pEC50 to WT) (FP I298A): -1.8 and -2.1
- effect of mutation on agonist potency (in words) (FP M115A): significantly decreased the potency
- ∆pEC50 (pEC50 of agonist to mutant minus pEC50 to WT) (FP S118N; S118N mutant vs WT FP, IP1 accumulation, AD293 cells, single values of n = 3 independent samples): -1.0 and -1.1 and -1.2
- effect of mutation on agonist potency (in words) (FP S118N; S118 to asparagine vs WT FP): significantly reduced the potency
- effect of mutation on agonist activity / potency (in words) (FP T184A): significantly decreased the potency
- ∆pEC50 (pEC50 of agonist to mutant minus pEC50 to WT) (FP S118A; S118A mutant vs WT FP, IP1 accumulation, AD293 cells, single values of n = 3 independent samples): -1.0 and -0.9
- effect of mutation on agonist potency (in words) (FP S118A; S118 to alanine vs WT FP): significantly reduced the potency
- effect of mutation on agonist activity / potency (in words) (FP R291A): significantly decreased the potency
- ∆pEC50 (pEC50 of agonist to mutant minus pEC50 to WT) (FP Q297A): -1.5 and -1.4
- ∆pEC50 (pEC50 of agonist to mutant minus pEC50 to WT) (FP F265A): -2.5 and -2.2
- ∆pEC50 (pEC50 of agonist to mutant minus pEC50 to WT) (FP T294A; T294A mutant vs WT FP, IP1 accumulation, AD293 cells, single values of n = 3 independent samples): -2.0 and -1.8 and -1.9
- effect of mutation on agonist affinity / potency (in words) (FP T294A; T294 to alanine vs WT FP): significantly decreased the potency
- effect of mutation on agonist activity / potency (in words) (FP Y92A): significantly decreased the potency
- ∆pEC50 (pEC50 of agonist to mutant minus pEC50 to WT) (FP S118F): -1.0 and -0.9 and -0.8
Structure (SMILES): O=C(O)CCC/C=C\C[C@@H]1[C@@H](CC[C@@H](O)CCc2ccccc2)[C@H](O)C[C@@H]1O [LTPA, Latanoprost acid]
- selectivity enhancement compared to PGF2α (FP; FP versus EP1 and EP3): more than 100 times
- EC50 (FP; FP): 0.0036 µM
- EC50 (EP1): 6.9 µM
- EC50 (EP3): 17 µM
